Several values for one entry are separate records, joined by “and”; a condition that tells them apart may be missing. Identical values can stand only once. No end group written: not given here.
What was measured:
RD cells = assay: Cytotoxicity by CCK-8 in RD cells; type: cell-based; conditions: RD cells; for Cell viability (%): 24 h, CCK-8 4 h (Example 18); for cytotoxicity, result in words: CCK-8, 24 h
Method: (§1) The experiment was performed as follows. • (1) RD cells were plated in a 96-well plate at 100 μl per well. • (2) After the cells reached 70%-80% confluence, the MEM medium containing 10% serum was replaced with a MEM medium containing 2% serum. Then, polypeptide P2 was added to generate gradient concentrations of 0.01 μM, 0.1 μM, 1 μM, 10 μM, and 100 μM (final concentration), respectively. • (3) The test was performed 24 hours after the addition of the polypeptide, and 10 μl of viable cell detection reagent CCK-8 was added to each well and mixed well. • (4) The plate was incubated at 37° C. for 2 h. • (5) The absorbance value at OD450 was measured with a microplate reader.
as §1, with “P1” for “P2”, “concentrations),” for “concentration),”
(§2) RD cells were used to test the antiviral effect of polypeptide P1. When RD cells reached 80% confluence, polypeptide P1 was added at concentrations of 0 μM (control group), 0.01 μM, 0.1 μM, 1 μM, 10 μM, and 100 μM, respectively. Three parallel wells were used for each concentration. The test was carried out 24 hours later, and the cell viability was detected using the CCK-8 kit.
as §1, with “3A-TAT-EP” for “P2”, “concentrations),” for “concentration),”
(§3) RD cells were used to test the antiviral effect of polypeptide 3A-TAT-EP. When RD cells reached 80% confluence, polypeptide 3A-TAT-EP was added at concentrations of 0 μM (control group), 0.01 μM, 0.1 μM, 1 μM, 10 μM, and 100 μM, respectively. Three parallel wells were used for each concentration. The test was carried out 24 hours later, and the cell viability was detected using the CCK-8 kit.
as §1, with “Then, 3A-EP-DRI or 3A-EP-PEG4-PA” for “Then, polypeptide P2”, “and 50” for “and 100”, “(final concentrations),” for “(final concentration),”
(§4) RD cells were used to test the antiviral effect of polypeptides 3A-EP-DRI and 3A-EP-PEG4-PA. When RD cells reached 80% confluence, polypeptide 3A-EP-DRI or 3A-EP-PEG4-PA was added at concentrations of 0 μM (control group), 0.01 μM, 0.1 μM, 1 μM, 10 μM, and 50 μM, respectively. Three parallel wells were used for each concentration. The test was carried out 24 hours later, and the cell viability was detected using the CCK-8 kit. […]

[1] = Cytotoxicity by CCK-8 in RD cells; type: cell-based; conditions: human; for CC50 at 24 h: Table 1 summary, cell line not given, read-out: CC50
Method: as §1
as §1, with “P1” for “P2”, “concentrations),” for “concentration),”
as §2
as §1, with “3A-TAT-EP” for “P2”, “concentrations),” for “concentration),”
as §3
as §1, with “Then, 3A-EP-DRI or 3A-EP-PEG4-PA” for “Then, polypeptide P2”, “and 50” for “and 100”, “(final concentrations),” for “(final concentration),”
as §4

CVB5 = assay: Anti-CVB5 effect in RD cells, qRT-PCR; type: cell-based, Coxsackievirus B5; conditions: Example 20, read-out: IC50 against CVB5
Method: • (1) […] were plated in a 24-well cell plate. • (2) After the cells reached 70%-80% confluence, the MEM medium containing 10% serum was replaced with a MEM medium containing 2% serum (0.5 ml/well).

[2] = Cytotoxicity by CCK-8 in Vero cells; type: cell-based; conditions: 24 h, read-out: Cell viability (%)
Method: (§5) The experiment was performed as follows. • (1) Vero cells were plated in a 96-well plate at 100 μl per well. • (2) After the cells reached 70%-80% confluence, the MEM medium containing 10% serum was replaced with a MEM medium containing 2% serum. Then, polypeptide BP8, BP10 or BP15 was added to generate gradient concentrations of […], […], 12.5 μM, 25 μM, 50 μM, 100 μM, and 200 μM (final concentrations), respectively. • (3) The samples were collected 24 hours after the addition of the polypeptide, and 10 μl of live cell detection reagent CCK-8 was added to each well and mixed well. • (4) The plate was placed at 37° C. for 4 h. • (5) The absorbance value at OD450 was measured with a microplate reader.

Vero cells = assay: Cytotoxicity by CCK-8 in Vero cells; type: cell-based; conditions: for Cell viability (%): 24 h; for cytotoxicity, result in words: CCK-8, 24 h
Method: as §5

[3] = RD cells, 24 h, CCK-8 4 h (Example 18), read-out: Cell viability (%)

In the case of `CC(C)C[C@H](NC(=O)[C@H](Cc1c[nH]c2ccccc12)NC(=O)CNC(=O)[C@H](CCCCN)NC(=O)[C@H](CCC(=O)O)NC(=O)[C@H](CCCCN)NC(=O)[C@H](CS)NC(=O)[C@H](Cc1ccc(O)cc1)NC(=O)[C@H](CCC(=O)O)NC(=O)[C@H](CCCNC(=N)N)NC(=O)[C@@H](NC(=O)[C@H](C)NC(=O)[C@H](CCC(=O)O)NC(=O)CNC(=O)[C@H](CO)NC(=O)CNC(=O)[C@H](CCCNC(=N)N)NC(=O)[C@H](CCCNC(=N)N)NC(=O)[C@H](CCCNC(=N)N)NC(=O)[C@H](CCC(N)=O)NC(=O)[C@H](CCCNC(=N)N)NC(=O)[C@H](CCCNC(=N)N)NC(=O)[C@H](CCCCN)NC(=O)[C@H](CCCCN)NC(=O)[C@H](CCCNC(=N)N)NC(=O)CNC(=O)[C@@H](N)Cc1ccc(O)cc1)C(C)C)C(=O)N[C@H](C(=O)N1CCC[C@H]1C(=O)O)C(C)C` [BP15], the “Cell viability (%)” value (RD cells; 3.0625 μM) is reported as 85.77% and 91.09%, the “Cell viability (%)” value (RD cells; 6.125 μM) is reported as 105.7678% and 97.72% and the “Cell viability (%)” value (RD cells; 12.5 μM) is reported as 98.76% and 95.25%. The “Cell viability (%)” value (RD cells; 25 μM) was 92.912% and 95.05%, the “Cell viability (%)” value (RD cells; 50 μM) was 103.6251% and 100.2489% and the “Cell viability (%)” value (RD cells; 100 μM) was 99.4048% and 104.9237%. For the same molecule, the “cytotoxicity, result in words” value (RD cells) was “not toxic to cells within 100 μM”, the viability at 24 h, 3.0625 µM [1, 3] was 91% and the viability at 24 h, 6.125 µM [1, 3] was 104%. The viability at 24 h, 12.5 µM [1, 3] was 96.7%, the viability at 24 h, 25 µM [1, 3] was 96.7% and the viability at 24 h, 50 µM [1, 3] was 107%. The viability at 24 h, 100 µM [1, 3] was 96.3%, the CC50 at 24 h [1] was greater than 100 µM and the IC50 (CVB5) was 6.76 µM. It also gave a viability at 24 h, 3.0625 µM [2] of 108%, a viability at 24 h, 6.125 µM [2] of 125% and a viability at 24 h, 12.5 µM [2] of 122%. It also gave a viability at 24 h, 25 µM [2] of 116%, a viability at 24 h, 50 µM [2] of 112% and a viability at 24 h, 100 µM [2] of 75.8%. For the same molecule, the viability at 24 h, 200 µM [2] was 20%, the “Cell viability (%)” value (Vero cells; 3.0625 μM) was 105.9733% and 109.128% and the “Cell viability (%)” value (Vero cells; 6.125 μM) was 127.0907% and 124.0647%. For the same molecule, the “Cell viability (%)” value (Vero cells; 12.5 μM) was 120.3949% and 122.777%, the “Cell viability (%)” value (Vero cells; 25 μM) was 111.0595% and 118.2059% and the “Cell viability (%)” value (Vero cells; 50 μM) was 109.4499% and 102.9473%. The “Cell viability (%)” value (Vero cells; 100 μM) was 87.11% and 76.81%, the “Cell viability (%)” value (Vero cells; 200 μM) was 13.65% and 13.13% and 13.4559% and the “cytotoxicity, result in words” value (Vero cells) was “not toxic to cells within 100 μM”.
With YGRKKRRQRRRGSGEAVREYCKEK [BP10] the “Cell viability (%)” value (RD cells; 3.0625 μM) was 98.99% and 103.5309%, the “Cell viability (%)” value (RD cells; 6.125 μM) was 93.25% and 92.62% and the “Cell viability (%)” value (RD cells; 12.5 μM) was 97.35% and 100.8827%. The “Cell viability (%)” value (RD cells; 25 μM) was 99.56% and 96.2169%, the “Cell viability (%)” value (RD cells; 50 μM) was 115.4477% and 116.3934% and the “Cell viability (%)” value (RD cells; 100 μM) was 112.232% and 114.3758%. The “Cell viability (%)” value (RD cells; 200 μM) was 85.18% and 97.54%, the “cytotoxicity, result in words” value (RD cells) was “not toxic to cells within 200 μM” and the viability at 24 h, 3.0625 µM [1, 3] was 97.7%. For the same molecule, the viability at 24 h, 6.125 µM [1, 3] was 98.5%, the viability at 24 h, 12.5 µM [1, 3] was 94.8% and the viability at 24 h, 25 µM [1, 3] was 109%. The viability at 24 h, 50 µM [1, 3] was 109%, the viability at 24 h, 100 µM [1, 3] was 107% and the viability at 24 h, 200 µM ([1]; RD cells, 200 μM, 24 h, CCK-8 4 h (Example 18), read-out: Cell viability (%)) was 79.7%. For the same molecule, the CC50 at 24 h [1] was greater than 200 µM, the IC50 (CVB5) was 1.33 µM and the viability at 24 h, 3.0625 µM [2] was 107%. For the same molecule, the viability at 24 h, 6.125 µM [2] was 119%, the viability at 24 h, 12.5 µM [2] was 122% and the viability at 24 h, 25 µM [2] was 117%. For the same molecule, the viability at 24 h, 50 µM [2] was 109%, the viability at 24 h, 100 µM [2] was 92.8% and the viability at 24 h, 200 µM [2] was 83.1%. For the same molecule, the “Cell viability (%)” value (Vero cells; 3.0625 μM) was 106.2952% and 107.1965%, the “Cell viability (%)” value (Vero cells; 6.125 μM) was 119.236% and 118.9785% and the “Cell viability (%)” value (Vero cells; 12.5 μM) was 120.8456% and 123.9359%. The “Cell viability (%)” value (Vero cells; 25 μM) was 117.3689% and 116.0169%, the “Cell viability (%)” value (Vero cells; 50 μM) was 118.399% and 120.0086% and the “Cell viability (%)” value (Vero cells; 100 μM) was 92.32% and 94.06%. The “Cell viability (%)” value (Vero cells; 200 μM) was 86.72% and 82.22% and the “cytotoxicity, result in words” value (Vero cells) was “not toxic to cells within 200 μM”.

— patent US11999806B2, “Broad-spectrum polypeptide against enterovirus and application thereof” (WUHAN INSTITUTE OF VIROLOGY, CHINESE ACADEMY OF SCIENCES, priority 2018, dated 2024)
